# Experimental data: patent US20050203067A1, “Pesticidal compositions and methods” (priority 2003, published 2005)
# Several values for one entry are separate records, joined by “and”; a condition that tells them apart may be missing. Equal entries are not always repeated. Entries after “also recorded” stand apart in the source; their conditions may differ. Where two headings read alike, the source gives them in different places.
# What was measured:
# C. elegans (strain N2) = test: C. elegans contact assay (NGM-agar, 24-well); type: in vivo
# C. elegans [1] = test: Nematicidal activity of ethanolamine-like compounds on NGM plates (L4 P0, F1 phenotype); type: in vivo, Caenorhabditis elegans
# Cephalobus sp. = test: Nematicidal activity against other nematodes (F1 phenotype); type: in vivo
# A. ellesmerensis = test: as above; type: in vivo, Acrobiloides ellesmerensis
# C. elegans [2] = test: C. elegans liquid (well) assay; type: in vivo; conditions: Caenorhabditis elegans, read-out: Well EC50
# C. elegans [3] = test: C. elegans agar (plate) assay; type: in vivo; conditions: Caenorhabditis elegans, read-out: Plate EC50
# [4] = system: Meloidogyne incognita J2 larvae; test: Miniaturized greenhouse assay on cucumber seedlings, root gall rating; type: in vivo; conditions: for Gall 40 (gall rating): 40 ppm; for Gall 200 (gall rating): 200 ppm
# cucumber seedling = test: Miniaturized greenhouse assay, phytotoxicity rating; conditions: for Ptox 40 (phytotoxicity rating): 40 ppm; for Ptox 200 (phytotoxicity rating): 200 ppm
# [5] = system: C. elegans PEAMT1 RNAi-generated mutants; type: in vivo; conditions: for rescue of PEAMT1 mutants: 5 mM
# [6] = system: C. elegans PEAMT2 RNAi-generated mutants; conditions: in vivo
# [7] = L4 P0 on NGM plates, 23° C., visual observation over several days
# [8] = Caenorhabditis elegans, average number of adults in 4 replicate wells 96 hours after challenge, 20° C., read-out: EC50
# [9] = 10 days after inoculation, rating scale 0-3 (% root mass galled)
# [10] = rating scale 0-3 (% plant weight reduction)
molecule,measurement,setting,value
2-[(4-phenylazo)phenylanilino]ethanesulfonamide [Compound 3770],EC50,"C. elegans (strain N2); average number of adults in 4 replicate wells 96 hours after challenge, 20° C., read-out: EC50",20 µM
NCC(O)c1ccccc1 (stereo not shown) [2-amino-1-phenylethanol],F1 PHENOTYPE,"C. elegans [1]; C. elegans, 25 mM",Wild-type development
same,nematicidal activity against C. elegans,C. elegans [1]; [7],no nematicidal effect
"OCCNCc1ccccc1 [Compound 3702, 2-Benzylaminoethanol]",EC50,C. elegans (strain N2); [8],3400 µM
"CC(C)(C)NCCO [Compound 3703, 2-(tert-Butylamino)ethanol]",F1 PHENOTYPE,"Cephalobus sp.; Cephalobus sp., 10 mM",L1/L2 arrest/lethality
same,F1 PHENOTYPE,"C. elegans [1]; C. elegans, 10 mM",L1/L2 arrest/lethality
same,nematicidal activity against C. elegans,C. elegans [1]; [7],showed nematicidal activity
same,EC50,C. elegans (strain N2); [8],4100 µM
same,F1 PHENOTYPE,"A. ellesmerensis; A. ellesmerensis, 10 mM",L1/L2 arrest/lethality
"N[C@@H](CO)Cc1ccccc1 [Compound 3704, D-Phenylalaninol]",F1 PHENOTYPE,Cephalobus sp.; in vivo,L1/L2 arrest/lethality
same,F1 PHENOTYPE,C. elegans [1]; in vivo,L1/L2 arrest/lethality
same,nematicidal activity against C. elegans,C. elegans [1]; in vivo,showed nematicidal activity
same,EC50,"C. elegans (strain N2); Caenorhabditis elegans, 96 h",2500 µM
same,F1 PHENOTYPE,A. ellesmerensis; in vivo,L1/L2 arrest/lethality
"OCCNc1ccccc1 [Compound 3733, N-(2-Hydroxyethyl)aniline]",F1 PHENOTYPE,"C. elegans [1]; C. elegans, 10 mM",L1/L2 arrest/lethality
same,nematicidal activity against C. elegans,C. elegans [1]; [7],showed nematicidal activity
same,EC50,C. elegans (strain N2); [8],4200 µM
"COc1ccc(NCCS(=O)(=O)F)cc1 [Compound 3736, 2-4-methoxy-phenylaminoethanesulfonyl fluoride]",EC50,"C. elegans (strain N2); in vivo, read-out: EC50",500 µM
"O=S(=O)(F)CCNc1ccc(Cl)cc1 [Compound 3738, 2-4-chlorophenylaminoethanesulfonyl fluoride]",EC50,"C. elegans (strain N2); in vivo, read-out: EC50",82 µM
"O=C1CCC(=O)N1CCS(=O)(=O)F [Compound 3743, 2,5-Dioxo-1-pyrrolidineethanesulfonyl fluoride]",EC50,"C. elegans (strain N2); in vivo, read-out: EC50",1300 µM
"O=S(=O)(F)CCn1nnc2ccccc21 [Compound 3745, 2-Benzotriazol-1-yl-ethanesulfonylfluoride]",EC50,"C. elegans (strain N2); in vivo, read-out: EC50",1700 µM and 1340 µM
"O=S(=O)(F)CCn1cnc2ccccc21 [Compound 3747, 2-Benzoimidazol-1-yl-ethanesulfonyl fluoride]",EC50,"C. elegans (strain N2); in vivo, read-out: EC50",1400 µM
"O=S(=O)(F)CCNc1ccccc1 [Compound 3754, 2-phenylaminoethanesulfonyl fluoride]",EC50,"C. elegans (strain N2); in vivo, read-out: EC50",940 µM and 570 µM
"CCN(C)c1ccc(/N=N/c2ccccc2)cc1 [Compound 3761, 4-N-ethyl-N-methylaminoazobenzene]",EC50,C. elegans (strain N2); [8],7 µM
same,EC50,"C. elegans [2]; liquid (well) assay, 20° C.",6.3 to 12.5 µg/mL
same,EC50,"C. elegans [3]; agar (plate) assay, 20° C.",0.8 µg/mL
same,Gall 40 (gall rating),[4]; [9],0.67
same,Gall 200 (gall rating),[4]; [9],0.00
same,Ptox 40 (phytotoxicity rating),cucumber seedling; [10],0.00
same,Ptox 200 (phytotoxicity rating),cucumber seedling; [10],1.00
"CCNc1ccccc1 [Compound 3766, N-ethylaniline]",EC50,C. elegans (strain N2); [8],360 µM
"CN(C)c1ccc(/N=N/c2ccc(NCCS(=O)(=O)F)cc2)cc1 [Compound 3767, 2-[4-(4-dimethylamino-phenylazo)-phenylamino]-ethanesulfonyl fluoride]",EC50,"C. elegans (strain N2); Caenorhabditis elegans, 96 h",7 µM
"CN(C)c1ccc(/N=N/c2ccccc2)cc1 [DC3783, Dimethyl-(4-phenylazo-phenyl)-amine]",EC50,C. elegans [2],0.4 to 0.78 µg/mL
same,EC50,C. elegans [3],1.6 µg/mL
"Cc1ccc(/N=N/c2ccc(N(C)C)cc2)cc1 [DC3785, Dimethyl-(4-p-tolylazo-phenyl)-amine]",EC50,"C. elegans [2]; liquid (well) assay, 20° C.",6.3 to 12.5 µg/mL
same,EC50,"C. elegans [3]; agar (plate) assay, 20° C.",> 100 µg/mL
"Cc1cc(N(C)C)ccc1/N=N/c1ccccc1 [DC3787, Dimethyl-(3-methyl-4-phenylazo-phenyl)-amine]",EC50,"C. elegans [2]; liquid (well) assay, 20° C.",0.4 to 0.78 µg/mL
same,EC50,"C. elegans [3]; agar (plate) assay, 20° C.",1.6 µg/mL
"CN(C)c1ccc(/N=N/c2ccccn2)cc1 [DC3791, Dimethyl-[4-(pyridin-2-ylazo)-phenyl]-amine]",EC50,"C. elegans [2]; liquid (well) assay, 20° C.",25 to 50 µg/mL
same,EC50,"C. elegans [3]; agar (plate) assay, 20° C.",12.5 to 25 µg/mL
"O=C1C=CC(=O)N1c1ccc(/N=N/c2ccccc2)cc1 [DC3792, 1-(4-Phenylazo-phenyl)-pyrrole-2,5-dione]",EC50,"C. elegans [2]; liquid (well) assay, 20° C.",3.2 to 6.3 µg/mL
same,EC50,"C. elegans [3]; agar (plate) assay, 20° C.",> 100 µg/mL
"CC(=O)Nc1ccc(/N=N/c2ccccc2)cc1Cl [DC3796, N-(2-Chloro-4-phenylazo-phenyl)-acetamide]",EC50,"C. elegans [2]; liquid (well) assay, 20° C.",3.2 to 6.3 µg/mL
same,EC50,"C. elegans [3]; agar (plate) assay, 20° C.",6.3 µg/mL
"CCNc1ccc(/N=N/c2ccc(Br)cc2)cc1 [DC3800, [4-(4-Bromo-phenylazo)-phenyl]-ethyl-amine]",EC50,"C. elegans [2]; liquid (well) assay, 20° C.",0.2 to 0.4 µg/mL
same,EC50,"C. elegans [3]; agar (plate) assay, 20° C.",0.4 µg/mL
same,Gall 40 (gall rating),[4]; [9],1.33
same,Gall 200 (gall rating),[4]; [9],0.00
same,Ptox 40 (phytotoxicity rating),cucumber seedling; [10],0.00
same,Ptox 200 (phytotoxicity rating),cucumber seedling; [10],2.67
"CCNc1ccc(/N=N/c2ccc(C)cc2)cc1 [DC3801, Ethyl-(4-p-tolylazo-phenyl)-amine]",EC50,"C. elegans [2]; liquid (well) assay, 20° C.",0.2 to 0.4 µg/mL
same,EC50,"C. elegans [3]; agar (plate) assay, 20° C.",0.4 µg/mL
same,Gall 40 (gall rating),[4]; [9],1.33
same,Gall 200 (gall rating),[4]; [9],0.00
same,Ptox 40 (phytotoxicity rating),cucumber seedling; [10],1.67
same,Ptox 200 (phytotoxicity rating),cucumber seedling; [10],3.00
"CN1CCCc2cc(/N=N/c3ccc(Br)cc3)ccc21 [DC3819, (4-Bromo-phenyl)-(1-methyl-1,2,3,4-tetrahydro-quinolin-6-yl)-diazene]",EC50,"C. elegans [2]; liquid (well) assay, 20° C.",0.4 to 0.8 µg/mL
same,EC50,"C. elegans [3]; agar (plate) assay, 20° C.",0.8 µg/mL
"COc1ccc(/N=N/c2ccc3c(c2)CCCN3C)cc1 [DC3821, (4-Methoxy-phenyl)-(1-methyl-1,2,3,4-tetrahydro-quinolin-6-yl)-diazene]",EC50,"C. elegans [2]; liquid (well) assay, 20° C.",0.8 to 1.6 µg/mL
same,EC50,"C. elegans [3]; agar (plate) assay, 20° C.",1.6 µg/mL
"CN(C)c1ccc(/N=N/c2ccccn2)c(O)c1 [DC3829, 5-Dimethylamino-2-(pyridin-2-ylazo)-phenol]",EC50,"C. elegans [2]; liquid (well) assay, 20° C.",6.2 to 12.5 µg/mL
same,EC50,"C. elegans [3]; agar (plate) assay, 20° C.",3.2 µg/mL
"Cc1ccccc1/N=N/c1ccc(N(C)C)cc1 [DC3832, Dimethyl-(4-o-tolylazo-phenyl)-amine]",EC50,"C. elegans [2]; liquid (well) assay, 20° C.",1.5 to 3.1 µg/mL
same,EC50,"C. elegans [3]; agar (plate) assay, 20° C.",1.6 µg/mL
"O=C1CSC(=S)N1c1ccc(/N=N/c2ccc([N+](=O)[O-])cc2)cc1 [DC3833, 3-[4-(4-Nitro-phenylazo)-phenyl]-2-thioxo-thiazolidin-4-one]",EC50,"C. elegans [2]; liquid (well) assay, 20° C.",12.5 to 25 µg/mL
same,EC50,"C. elegans [3]; agar (plate) assay, 20° C.",6.2 µg/mL
"O=[N+]([O-])c1ccc(/N=N/c2ccc(O)cc2)cc1 [DC3844, 4-(4-Nitro-phenylazo)-phenol]",EC50,"C. elegans [2]; liquid (well) assay, 20° C.",3.1 to 6.2 µg/mL
same,EC50,"C. elegans [3]; agar (plate) assay, 20° C.",6.25 µg/mL
"CNc1ccc(N=Nc2ccccc2)cc1 [DC3845, Methyl-(4-phenylazo-phenyl)-amine]",EC50,C. elegans [2],0.4 to 0.8 µg/mL
same,EC50,C. elegans [3],0.4 µg/mL
same,Gall 40 (gall rating),[4],0.33
same,Gall 200 (gall rating),[4],0.00
same,Ptox 40 (phytotoxicity rating),cucumber seedling,1.00
same,Ptox 200 (phytotoxicity rating),cucumber seedling,3.00
"CN(C)c1ccc(/N=N/c2cccc(Cl)c2)cc1 [DC3853, [4-(3-Chloro-phenylazo)-phenyl]-dimethyl-amine]",EC50,"C. elegans [2]; liquid (well) assay, 20° C.",0.4 µg/mL
same,EC50,"C. elegans [3]; agar (plate) assay, 20° C.",0.4 µg/mL
"CN(C)c1ccc(C(=O)c2ccccc2)cc1 [DC3890, (4-Dimethylamino-phenyl)-phenyl-methanone]",EC50,"C. elegans [2]; liquid (well) assay, 20° C.",12 µg/mL
"O=[N+]([O-])c1ccc(N=Nc2ccccc2)cc1 [DC3898, (4-Nitro-phenyl)-phenyl-diazene]",EC50,"C. elegans [2]; liquid (well) assay, 20° C.",1.6 µg/mL
"CN(C)c1ccc(/C=C/C(=O)c2ccccc2)cc1 [DC3901, 3-(4-Dimethylamino-phenyl)-1-phenyl-propenone]",EC50,"C. elegans [2]; liquid (well) assay, 20° C.",12.5 µg/mL
"CN(C)CCO [DME, dimethylethanolamine]",rescue of PEAMT1 mutants,[5],rescued
same,F1 phenotype PEAMT1 dsRNA,[5]; in vivo,Fertile adults
same,rescue of the sterility associated with PEAMT1 RNAi,[5]; in vivo,rescues the sterility
same,F1 phenotype PEAMT2 dsRNA,[6],Sterility; also recorded: L1/L2 arrest/lethality
"NCCO [EA, ethanolamine]",F1 phenotype PEAMT1 dsRNA,[5]; in vivo,L1/L2 arrest/lethality
same,F1 phenotype PEAMT2 dsRNA,[6],L1/L2 arrest/lethality
"CNCCO [MME, monomethylethanolamine]",rescue of PEAMT1 mutants,[5],rescued
same,F1 phenotype PEAMT1 dsRNA,[5]; in vivo,Fertile adults
same,F1 phenotype PEAMT2 dsRNA,[6],L1/L2 arrest/lethality
